Data as given in US11780823B2, “Indazole-3-carboxamides and their use as Wnt/β-catenin signaling pathway inhibitors” (BioSplice Therapeutics, Inc., priority 2011, dated 2023).

Each compound was assayed on Wnt activity (wnt-responsive SP5 promoter luciferase reporter in SW480 cells) (assay: Wnt reporter screening assay: SP5 promoter-driven firefly luciferase in SW480 cells). Conditions: Homo sapiens; SW480 colon cancer cells with SP5 promoter luciferase reporter; half-log dilutions, ten micromolar top concentration; read 24-40 h after compound addition; normalized to DMSO; read-out: Wnt inhibition.
Type: cell-based
Excerpt: Another screening assay for Wnt activity is described as follows. Reporter cell lines can be generated by stably transducing cells of cancer cell lines (e.g., colon cancer) with a lentiviral construct that include a wnt-responsive promoter driving expression of the firefly luciferase gene.
Lentiviral constructs can be made in which the SP5 promoter, a promoter having eight TCF/LEF binding sites derived from the SP5 promoter, is linked upstream of the firefly luciferase gene. The lentiviral constructs can also include a hygromycin resistance gene as a selectable marker. The SP5 promoter construct can be used to transduce SW480 cells, a colon cancer cell line having a mutated APC gene that generates a truncated APC protein, leading to de-regulated accumulation of β-catenin.
Cultured SW480 cells bearing a reporter construct can be distributed at approximately 10,000 cells per well into 96 well or 384 well plates. Compounds from a small molecule compound library can then be added to the wells in half-log dilutions using a ten micromolar top concentration. A series of control wells for each cell type receive only buffer and compound solvent. Twenty-four to forty hours after the addition of compound, reporter activity for luciferase can be assayed, for example, by addition of the BrightGlo luminescence reagent (Promega) and the Victor3 plate reader (Perkin Elmer). Readings can be normalized to DMSO only treated cells, and normalized activities can then be used in the IC50 calculations.
`N#Cc1ccc(NC(=O)c2n[nH]c3ccc(-c4cncc(CN5CCCC5)c4)cc23)cn1` [Compound 52, N-(6-Cyanopyridin-3-yl)-5-(5-(pyrrolidin-1-ylmethyl)pyridin-3-yl)-1H-indazole-3-carboxamide] was tested, and the IC50 was 57 nM.
Work on `O=C(Nc1ccc(N2CCCC2)nc1)c1n[nH]c2ccc(-c3cccnc3)cc12` [Compound 53, 5-(Pyridin-3-yl)-N-(6-(pyrrolidin-1-yl)pyridin-3-yl)-1H-indazole-3-carboxamide] yielded an IC50 of 63 nM.
In the case of `COc1ccc(-c2ccc3[nH]nc(C(=O)Nc4cccnc4)c3c2)cn1` [Compound 54, 5-(6-Methoxypyridin-3-yl)-N-(pyridin-3-yl)-1H-indazole-3-carboxamide], the IC50 is reported as 158 nM.
For `O=C(Nc1cccnc1)c1n[nH]c2ccc(-c3cncc(Cc4ccccc4)c3)cc12` [Compound 55, 5-(5-Benzylpyridin-3-yl)-N-(pyridin-3-yl)-1H-indazole-3-carboxamide], the IC50 was 44 nM.
`O=C(Nc1cccnc1)c1n[nH]c2ccc(-c3cncc(Oc4ccccc4)c3)cc12` [Compound 56, 5-(5-Phenoxypyridin-3-yl)-N-(pyridin-3-yl)-1H-indazole-3-carboxamide] was tested, and the IC50 was 160 nM.
With `O=C(Nc1cnccc1C(F)(F)F)c1n[nH]c2ccc(-c3cncc(CN4CCCC4)c3)cc12` [Compound 57, 5-(5-(Pyrrolidin-1-ylmethyl)pyridin-3-yl)-N-(4-(trifluoromethyl)pyridin-3-yl)-1H-indazole-3-carboxamide] the IC50 was at least 10000 nM.
`O=C(Nc1cnccc1NC(=O)C1CC1)c1n[nH]c2ccc(-c3cccnc3)cc12` [Compound 58, N-(4-(Cyclopropanecarboxamido)pyridin-3-yl)-5-(pyridin-3-yl)-1H-indazole-3-carboxamide] was tested, and the IC50 was 71 nM.
`O=C(NC1CCCCC1)c1cncc(-c2ccc3[nH]nc(C(=O)Nc4cccnc4)c3c2)c1` [Compound 59, 5-(5-(Cyclohexylcarbamoyl)pyridin-3-yl)-N-(pyridin-3-yl)-1H-indazole-3-carboxamide] showed an IC50 of 3100 nM.
`CN1CCN(Cc2cc(F)cc(-c3ccc4[nH]nc(C(=O)Nc5cnccc5C(F)(F)F)c4c3)c2)CC1` [Compound 60, 5-(3-Fluoro-5-((4-methylpiperazin-1-yl)methyl)phenyl)-N-(4-(trifluoromethyl)pyridin-3-yl)-1H-indazole-3-carboxamide] showed an IC50 of at least 10000 nM.
`CN1CCN(Cc2cncc(-c3ccc4[nH]nc(C(=O)Nc5cccnc5)c4c3)c2)CC1` [Compound 61, 5-(5-((4-Methylpiperazin-1-yl)methyl)pyridin-3-yl)-N-(pyridin-3-yl)-1H-indazole-3-carboxamide] showed an IC50 of 239 nM.
Compound `N#Cc1ccc(NC(=O)c2n[nH]c3ccc(-c4cncc(CN5CCCCC5)c4)cc23)cn1` [Compound 62, N-(6-cyanopyridin-3-yl)-5-(5-(piperidin-1-ylmethyl)pyridin-3-yl)-1H-indazole-3-carboxamide] has an IC50 of 16 nM.
With `O=C(Nc1ccc(C(F)(F)F)nc1)c1n[nH]c2ccc(-c3cncc(CN4CCCCC4)c3)cc12` [Compound 63, 5-(5-(Piperidin-1-ylmethyl)pyridin-3-yl)-N-(6-(trifluoromethyl)pyridin-3-yl)-1H-indazole-3-carboxamide] the IC50 was 100 nM.
For `O=C(Nc1cccnc1)c1n[nH]c2ccc(-c3cncc(CN4CCOCC4)c3)cc12` [Compound 64, 5-(5-(Morpholinomethyl)pyridin-3-yl)-N-(pyridin-3-yl)-1H-indazole-3-carboxamide], the IC50 was 6 nM.
With `O=C(Nc1ccc(-c2ccccc2)nc1)c1n[nH]c2ccc(-c3cncc(CN4CCCCC4)c3)cc12` [Compound 65, N-(6-Phenylpyridin-3-yl)-5-(5-(piperidin-1-ylmethyl)pyridin-3-yl)-1H-indazole-3-carboxamide] the IC50 was 101 nM.
Work on `N#Cc1cncc(-c2ccc3[nH]nc(C(=O)Nc4cccnc4)c3c2)c1` [Compound 66, 5-(5-Cyanopyridin-3-yl)-N-(pyridin-3-yl)-1H-indazole-3-carboxamide] yielded an IC50 of at least 10000 nM.
Work on `O=C(Nc1cccnc1)c1n[nH]c2ccc(-c3cc(F)cc(CN4CCCCC4)c3)cc12` [Compound 67, 5-(3-Fluoro-5-(piperidin-1-ylmethyl)phenyl)-N-(pyridin-3-yl)-1H-indazole-3-carboxamide] yielded an IC50 of at least 10000 nM.
`O=C(Nc1ccc(C(F)(F)F)nc1)c1n[nH]c2ccc(-c3cncc(CN4CCOCC4)c3)cc12` [Compound 68, 5-(5-(Morpholinomethyl)pyridin-3-yl)-N-(6-(trifluoromethyl)pyridin-3-yl)-1H-indazole-3-carboxamide] gave an IC50 of 48 nM.
For `O=C(Nc1ccc(N2CCOCC2)nc1)c1n[nH]c2ccc(-c3cncc(CN4CCCCC4)c3)cc12` [Compound 69, N-(6-Morpholinopyridin-3-yl)-5-(5-(piperidin-1-ylmethyl)pyridin-3-yl)-1H-indazole-3-carboxamide], the IC50 was 50 nM.
With `CN1CCN(c2ccc(NC(=O)c3n[nH]c4ccc(-c5cncc(CN6CCCCC6)c5)cc34)cn2)CC1` [Compound 70, N-(6-(4-Methylpiperazin-1-yl)pyridin-3-yl)-5-(5-(piperidin-1-ylmethyl)pyridin-3-yl)-1H-indazole-3-carboxamide] the IC50 was 41 nM.
`O=C(Nc1ccc(N2CCCC2)nc1)c1n[nH]c2ccc(-c3cncc(CN4CCCCC4)c3)cc12` [Compound 71, 5-(5-(Piperidin-1-ylmethyl)pyridin-3-yl)-N-(6-(pyrrolidin-1-yl)pyridin-3-yl)-1H-indazole-3-carboxamide] gave an IC50 of 25 nM.
For `O=C(Nc1ccc(-c2cccc(F)c2)nc1)c1n[nH]c2ccc(-c3cncc(CN4CCCCC4)c3)cc12` [Compound 72, N-(6-(3-Fluorophenyl)pyridin-3-yl)-5-(5-(piperidin-1-ylmethyl)pyridin-3-yl)-1H-indazole-3-carboxamide], the IC50 was 215 nM.
For `O=C(Nc1ccc(-c2ccc(F)cc2)nc1)c1n[nH]c2ccc(-c3cncc(CN4CCCCC4)c3)cc12` [Compound 73, N-(6-(4-Fluorophenyl)pyridin-3-yl)-5-(5-(piperidin-1-ylmethyl)pyridin-3-yl)-1H-indazole-3-carboxamide], the IC50 was 322 nM.
Work on `CN(C)CCN(C)c1ccc(NC(=O)c2n[nH]c3ccc(-c4cncc(CN5CCCCC5)c4)cc23)cn1` [Compound 74, N-(6-((2-(Dimethylamino)ethyl)(methyl)amino)pyridin-3-yl)-5-(5-(piperidin-1-ylmethyl)pyridin-3-yl)-1H-indazole-3-carboxamide] yielded an IC50 of 65 nM.
`O=C(Nc1ccnnc1)c1n[nH]c2ccc(-c3cncc(CN4CCCCC4)c3)cc12` [Compound 75, 5-(5-(Piperidin-1-ylmethyl)pyridin-3-yl)-N-(pyridazin-4-yl)-1H-indazole-3-carboxamide] gave an IC50 of 40 nM.
With `O=C(NCc1cccnc1)c1n[nH]c2ccc(-c3cncc(CN4CCCCC4)c3)cc12` [Compound 76, 5-(5-(Piperidin-1-ylmethyl)pyridin-3-yl)-N-(pyridin-3-ylmethyl)-1H-indazole-3-carboxamide] the IC50 was 850 nM.
`O=C(NC1CCCCC1)c1n[nH]c2ccc(-c3cncc(CN4CCCCC4)c3)cc12` [Compound 77, N-Cyclohexyl-5-(5-(piperidin-1-ylmethyl)pyridin-3-yl)-1H-indazole-3-carboxamide] was tested, and the IC50 was 2650 nM.
For `O=C(Nc1ccc2c(c1)OCO2)c1n[nH]c2ccc(-c3cncc(CN4CCCCC4)c3)cc12` [Compound 78, N-(Benzo[d][1,3]dioxol-5-yl)-5-(5-(piperidin-1-ylmethyl)pyridin-3-yl)-1H-indazole-3-carboxamide], the IC50 was 239 nM.
`O=C(Nc1ccc2c(c1)OCCO2)c1n[nH]c2ccc(-c3cncc(CN4CCCCC4)c3)cc12` [Compound 79, N-(2,3-Dihydrobenzo[b][1,4]dioxin-6-yl)-5-(5-(piperidin-1-ylmethyl)pyridin-3-yl)-1H-indazole-3-carboxamide] was tested, and the IC50 was 123 nM.
In the case of `O=C(Nc1cncc(Cc2ccccc2)c1)c1n[nH]c2ccc(-c3cncc(CN4CCCCC4)c3)cc12` [Compound 80, N-(5-Benzylpyridin-3-yl)-5-(5-(piperidin-1-ylmethyl)pyridin-3-yl)-1H-indazole-3-carboxamide], the IC50 is reported as 158 nM.
`O=C(Nc1cnccn1)c1n[nH]c2ccc(-c3cncc(CN4CCCCC4)c3)cc12` [Compound 81, 5-(5-(Piperidin-1-ylmethyl)pyridin-3-yl)-N-(pyrazin-2-yl)-1H-indazole-3-carboxamide] gave an IC50 of 77 to 142 nM.
In the case of `O=C(Nc1ccccc1)c1n[nH]c2ccc(-c3cncc(CN4CCCCC4)c3)cc12` [Compound 82, N-Phenyl-5-(5-(piperidin-1-ylmethyl)pyridin-3-yl)-1H-indazole-3-carboxamide], the IC50 is reported as 143 to 188 nM.
Work on `CN1CCN(C(=O)c2n[nH]c3ccc(-c4cncc(CN5CCCCC5)c4)cc23)CC1` [Compound 83, (4-Methylpiperazin-1-yl)(5-(5-(piperidin-1-ylmethyl)pyridin-3-yl)-1H-indazol-3-yl)methanone] yielded an IC50 of 2500 to 3400 nM.
Compound `C[C@@H]1CCC[C@H](C)N1Cc1cncc(-c2ccc3[nH]nc(C(=O)Nc4cccnc4)c3c2)c1` [Compound 84, 5-(5-(((2R,6S)-2,6-Dimethylpiperidin-1-yl)methyl)pyridin-3-yl)-N-(pyridin-3-yl)-1H-indazole-3-carboxamide] has an IC50 of 822 to 898 nM.
`CN(C)Cc1cncc(NC(=O)c2n[nH]c3ccc(-c4cncc(CN5CCCCC5)c4)cc23)c1` [Compound 86, N-(5-((Dimethylamino)methyl)pyridin-3-yl)-5-(5-(piperidin-1-ylmethyl)pyridin-3-yl)-1H-indazole-3-carboxamide] showed an IC50 of 66 nM.
